Laboratory results: US8772300B2, “Phenyl or pyridinyl-ethynyl derivatives” (Hoffmann-La Roche Inc., priority 2011, dated 2014)

Molecular target: T1, human mGlu5a receptor (Homo sapiens, UniProt P41594)
T1 construct: expressed in transfected cells
Experiment: Intracellular Ca2+ mobilization assay (mGlu5 PAM)
Assay type: cell-based
Details: for Emax: HEK293, maximal response in % of the maximal stimulatory effect obtained with saturating concentrations of L-glutamate, read-out: Eff. (%); for EC50: HEK-293 cells stably transfected with human mGlu5a receptor, L-glutamate added at EC20 (typically around 80 μM) after 10-30 min pre-incubation with test compound, read-out: EC50 (nM) mGlu5PAM
Experimental: A monoclonal HEK-293 cell line stably transfected with a cDNA encoding for the human mGlu5a receptor was generated; for the work with mGlu5 Positive Allosteric Modulators (PAMs), a cell line with low receptor expression levels and low constitutive receptor activity was selected to allow the differentiation of agonistic versus PAM activity. Cells were cultured according to standard protocols (Freshney, 2000) in Dulbecco's Modified Eagle Medium with high glucose supplemented with 1 mM glutamine, 10% (vol/vol) heat-inactivated bovine calf serum, Penicillin/Streptomycin, 50 μg/ml hygromycin and 15 μg/ml blasticidin (all cell culture reagents and antibiotics from Invitrogen, Basel, Switzerland).
About 24 hrs before an experiment, 5×10^4 cells/well were seeded in poly-D-lysine coated, black/clear-bottomed 96-well plates. The cells were loaded with 2.5 μM Fluo-4AM in loading buffer (1×HBSS, 20 mM HEPES) for 1 hr at 37° C. and washed five times with loading buffer. The cells were transferred into a Functional Drug Screening System 7000 (Hamamatsu, Paris, France), and 11 half logarithmic serial dilutions of test compound at 37° C. were added and the cells were incubated for 10-30 min with on-line recording of fluorescence. Following this pre-incubation step, the agonist L-glutamate was added to the cells at a concentration corresponding to EC20 (typically around 80 μM) with on-line recording of fluorescence; in order to account for day-to-day variations in the responsiveness of cells, the EC20 of glutamate was determined immediately ahead of each experiment by recording of a full dose-response curve of glutamate.
Responses were measured as peak increase in fluorescence minus basal (i.e. fluorescence without addition of L-glutamate), normalized to the maximal stimulatory effect obtained with saturating concentrations of L-glutamate. Graphs were plotted with the % maximal stimulatory using XLfit, a curve fitting program that iteratively plots the data using Levenburg Marquardt algorithm. The single site competition analysis equation used was y=A+((B−A)/(1+((x/C)D))), where y is the % maximal stimulatory effect, A is the minimum y, B is the maximum y, C is the EC50, x is the log 10 of the concentration of the competing compound and D is the slope of the curve (the Hill Coefficient). From these curves the EC50 (concentration at which half maximal stimulation was achieved), the Hill coefficient as well as the maximal response in % of the maximal stimulatory effect obtained with saturating concentrations of L-glutamate were calculated.
A depression of the signal observed after addition of the EC20 concentration of L-glutamate was indicative of an inhibitory activity of the test compound.

T1 sequence (P41594 21-1180 isoform P41594-2 limits assumed): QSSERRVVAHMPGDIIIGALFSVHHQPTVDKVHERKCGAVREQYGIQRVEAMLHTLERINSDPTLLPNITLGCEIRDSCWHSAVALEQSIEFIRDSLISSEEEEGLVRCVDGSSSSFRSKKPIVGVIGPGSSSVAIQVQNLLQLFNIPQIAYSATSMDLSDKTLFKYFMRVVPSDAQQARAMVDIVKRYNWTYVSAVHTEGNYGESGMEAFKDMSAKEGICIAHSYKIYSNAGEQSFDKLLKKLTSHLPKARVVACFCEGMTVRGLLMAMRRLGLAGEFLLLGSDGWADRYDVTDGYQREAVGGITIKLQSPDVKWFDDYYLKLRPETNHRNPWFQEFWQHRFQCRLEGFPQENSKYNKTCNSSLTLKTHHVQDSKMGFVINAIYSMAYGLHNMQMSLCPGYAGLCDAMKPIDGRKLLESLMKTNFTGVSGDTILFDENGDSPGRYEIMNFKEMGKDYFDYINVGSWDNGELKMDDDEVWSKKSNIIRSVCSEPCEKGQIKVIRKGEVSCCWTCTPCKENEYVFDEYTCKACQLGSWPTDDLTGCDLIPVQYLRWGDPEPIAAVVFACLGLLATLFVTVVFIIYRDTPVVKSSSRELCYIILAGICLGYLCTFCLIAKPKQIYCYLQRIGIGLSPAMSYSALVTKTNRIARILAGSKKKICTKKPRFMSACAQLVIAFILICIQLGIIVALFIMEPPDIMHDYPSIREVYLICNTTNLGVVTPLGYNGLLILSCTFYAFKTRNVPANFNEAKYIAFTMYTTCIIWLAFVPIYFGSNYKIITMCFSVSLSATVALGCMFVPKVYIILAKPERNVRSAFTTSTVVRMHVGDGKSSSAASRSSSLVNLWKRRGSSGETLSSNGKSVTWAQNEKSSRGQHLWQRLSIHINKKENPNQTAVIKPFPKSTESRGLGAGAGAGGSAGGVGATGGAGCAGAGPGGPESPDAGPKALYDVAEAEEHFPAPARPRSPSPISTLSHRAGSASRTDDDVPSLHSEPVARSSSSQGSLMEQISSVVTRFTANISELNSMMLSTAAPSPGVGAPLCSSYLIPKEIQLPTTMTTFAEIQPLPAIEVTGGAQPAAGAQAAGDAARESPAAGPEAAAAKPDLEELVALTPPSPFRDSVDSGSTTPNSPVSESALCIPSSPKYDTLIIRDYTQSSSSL

Row | Emax (HEK-293 human mGlu5a cells) | EC50 | Eff. (%) (maximal response in % of the maximal stimulatory effect obtained with saturating concentrations of L-glutamate, HEK-293 human mGlu5a cells) | Structure (SMILES)
1 | 57% | 54 nM | – | CC1(C)CC(O)CCN1C(=O)c1ncc(C#Cc2cccc(F)c2)cc1F (racemic) [Example 67, (RS)-[3-Fluoro-5-(3-fluoro-phenylethynyl)-pyridin-2-yl]-(4-hydroxy-2,2-dimethyl-piperidin-1-yl)-methanone]
2 | 45% | 40 nM | – | CC1(C)CC(O)CCN1C(=O)c1ccc(C#Cc2cccc(F)c2)cn1 (racemic) [Example 63, (RS)-[5-(3-Fluoro-phenylethynyl)-pyridin-2-yl]-(4-hydroxy-2,2-dimethyl-piperidin-1-yl)-methanone]
3 | – | 69 nM | 60% | CC(NC(=O)c1ccc(C#Cc2ccnc(Cl)c2)cn1)C(F)(F)F (single isomer, unassigned) [Example 60, (S) or (R)-5-(2-Chloro-pyridin-4-ylethynyl)-pyridine-2-carboxylic Acid (2,2,2-trifluoro-1-methyl-ethyl)-amide]
4 | 65% | 32 nM | – | CN(C(=O)c1ncc(C#Cc2ccc(F)cc2)cc1F)C(C)(C)C [Example 22, 3-Fluoro-5-(4-fluoro-phenylethynyl)-pyridine-2-carboxylic Acid tert-butyl-methyl-amide]
5 | 70% | 72 nM | – | CN(C(=O)c1ccc(C#Cc2cccnc2)cn1)C(C)(C)C [Example 6, 5-Pyridin-3-ylethynyl-pyridine-2-carboxylic Acid tert-butyl-methyl-amide]
6 | 49% | 101 nM | – | CC1(C)CC(O)CCN1C(=O)c1ncc(C#Cc2cc(F)ccc2F)cn1 (racemic) [Example 66, (RS)-[5-(2,5-Difluoro-phenylethynyl)-pyrimidin-2-yl]-(4-hydroxy-2,2-dimethyl-piperidin-1-yl)-methanone]
7 | 29% | 33 nM | – | Cc1cc(C#Cc2cc(F)ccc2F)cnc1C(=O)N(C)C(C)(C)C [Example 19, 5-(2,5-Difluoro-phenylethynyl)-3-methyl-pyridine-2-carboxylic Acid tert-butyl-methyl-amide]
8 | 55% | 49 nM | – | CC1(C)CN(C(=O)c2ncc(C#Cc3ccccc3)cn2)CCC1O (racemic) [Example 48, (RS)-(4-Hydroxy-3,3-dimethyl-piperidin-1-yl)-(5-phenylethynyl-pyrimidin-2-yl)-methanone]
9 | 115% | 49 nM | – | CC(C)(C)NC(=O)c1ccc(C#Cc2ccccc2)cn1 [Example 1, 5-Phenylethynyl-pyridine-2-carboxylic Acid tert-butylamide]
10 | 35% | 33 nM | – | CN(C(=O)c1ncc(C#Cc2cccc(F)c2)cc1F)C1(C)CC1 [Example 42, 3-Fluoro-5-(3-fluoro-phenylethynyl)-pyridine-2-carboxylic Acid methyl-(1-methyl-cyclopropyl)-amide]
11 | 57% | 44 nM | – | CN(C(=O)c1ccc(C#Cc2cncc(Cl)c2)cn1)C1(C(F)(F)F)CC1 [Example 53, 5-(5-Chloro-pyridin-3-ylethynyl)-pyridine-2-carboxylic Acid methyl-(1-trifluoromethyl-cyclopropyl)-amide]
